Article PMC10882719 (Frontiers in Neuroscience, 2024)
Read-outs that look alike come from different tables or passages of the source.

Key:
Assay type in all cases: cell-based
168 GPCRs [1] = target: T1, 168 GPCRs (Homo sapiens, UniProt O43193); conditions: MLNR
T1 construct: host or cells: PathHunter cell lines

168 GPCRs [2] = target: T2, 168 GPCRs (Homo sapiens, UniProt O43603)
T2 construct: host or cells: PathHunter cell lines
T2 sequence (O43603 1-387): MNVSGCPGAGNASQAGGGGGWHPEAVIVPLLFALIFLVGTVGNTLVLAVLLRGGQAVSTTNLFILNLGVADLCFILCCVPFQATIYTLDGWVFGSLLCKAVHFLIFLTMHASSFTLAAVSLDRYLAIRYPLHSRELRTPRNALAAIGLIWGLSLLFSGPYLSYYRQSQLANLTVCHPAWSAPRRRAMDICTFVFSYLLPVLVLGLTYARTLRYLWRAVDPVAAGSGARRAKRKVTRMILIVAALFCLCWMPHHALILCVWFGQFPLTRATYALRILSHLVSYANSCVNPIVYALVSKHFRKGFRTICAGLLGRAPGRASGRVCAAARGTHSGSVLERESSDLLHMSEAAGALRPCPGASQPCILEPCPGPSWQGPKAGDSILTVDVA

168 GPCRs [3] = target: T3, 168 GPCRs (Homo sapiens, UniProt P25929); conditions: NPY1R
T3 construct: host or cells: PathHunter cell lines
T3 sequence (P25929 1-384): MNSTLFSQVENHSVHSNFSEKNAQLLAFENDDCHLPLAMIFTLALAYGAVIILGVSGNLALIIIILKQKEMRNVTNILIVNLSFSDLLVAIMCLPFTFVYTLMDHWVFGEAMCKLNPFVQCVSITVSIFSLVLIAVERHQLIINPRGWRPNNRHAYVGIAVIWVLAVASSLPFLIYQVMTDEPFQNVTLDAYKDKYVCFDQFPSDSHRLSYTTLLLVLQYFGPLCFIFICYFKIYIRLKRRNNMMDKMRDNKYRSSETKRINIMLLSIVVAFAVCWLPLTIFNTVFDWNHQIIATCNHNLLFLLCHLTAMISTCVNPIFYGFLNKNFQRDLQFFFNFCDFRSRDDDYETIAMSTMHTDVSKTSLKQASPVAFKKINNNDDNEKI

168 GPCRs [4] = target: T4, 168 GPCRs (Homo sapiens, UniProt P28222); conditions: HTR1B
T4 construct: host or cells: PathHunter cell lines
T4 sequence (P28222 whole entry): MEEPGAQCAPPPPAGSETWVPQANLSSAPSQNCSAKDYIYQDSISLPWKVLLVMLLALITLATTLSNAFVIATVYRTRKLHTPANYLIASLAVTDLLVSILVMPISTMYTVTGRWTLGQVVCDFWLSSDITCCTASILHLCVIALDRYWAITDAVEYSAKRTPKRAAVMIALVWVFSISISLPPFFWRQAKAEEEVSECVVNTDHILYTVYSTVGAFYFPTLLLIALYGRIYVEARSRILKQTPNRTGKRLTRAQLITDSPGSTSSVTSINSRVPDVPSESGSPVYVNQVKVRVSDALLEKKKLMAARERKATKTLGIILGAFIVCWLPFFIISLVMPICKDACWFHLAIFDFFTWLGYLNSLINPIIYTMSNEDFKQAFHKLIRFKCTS

168 GPCRs [5] = target: T5, 168 GPCRs (Homo sapiens, UniProt P32238); conditions: CCKAR
T5 construct: host or cells: PathHunter cell lines
T5 sequence (P32238 1-428): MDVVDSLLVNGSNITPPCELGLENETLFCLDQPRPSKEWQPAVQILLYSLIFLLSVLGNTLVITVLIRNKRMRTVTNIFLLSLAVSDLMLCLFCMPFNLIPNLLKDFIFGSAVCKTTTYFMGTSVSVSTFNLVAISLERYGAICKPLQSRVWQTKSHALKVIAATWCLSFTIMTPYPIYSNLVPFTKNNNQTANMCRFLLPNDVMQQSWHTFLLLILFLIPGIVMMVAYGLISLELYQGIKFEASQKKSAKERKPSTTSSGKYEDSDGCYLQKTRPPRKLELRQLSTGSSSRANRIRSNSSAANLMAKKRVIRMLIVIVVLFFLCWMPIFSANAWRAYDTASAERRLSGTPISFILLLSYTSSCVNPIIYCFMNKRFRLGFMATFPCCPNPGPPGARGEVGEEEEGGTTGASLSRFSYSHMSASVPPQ

168 GPCRs [6] = target: T6, 168 GPCRs (Homo sapiens, UniProt P32745); conditions: SSTR3
T6 construct: host or cells: PathHunter cell lines
T6 sequence (P32745 whole entry): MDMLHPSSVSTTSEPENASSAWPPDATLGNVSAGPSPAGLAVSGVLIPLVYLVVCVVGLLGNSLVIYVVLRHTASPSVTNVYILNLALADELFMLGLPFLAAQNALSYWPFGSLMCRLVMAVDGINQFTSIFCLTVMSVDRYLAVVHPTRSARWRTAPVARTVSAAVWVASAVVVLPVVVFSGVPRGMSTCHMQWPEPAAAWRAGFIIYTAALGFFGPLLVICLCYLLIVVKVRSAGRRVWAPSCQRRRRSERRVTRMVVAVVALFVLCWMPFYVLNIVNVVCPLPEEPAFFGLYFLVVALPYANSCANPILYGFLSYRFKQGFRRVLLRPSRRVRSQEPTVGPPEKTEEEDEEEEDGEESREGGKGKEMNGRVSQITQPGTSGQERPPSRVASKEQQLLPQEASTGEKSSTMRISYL

168 GPCRs [7] = target: T7, 168 GPCRs (Homo sapiens, UniProt P35346); conditions: SSTR5
T7 construct: host or cells: PathHunter cell lines
T7 sequence (P35346 whole entry): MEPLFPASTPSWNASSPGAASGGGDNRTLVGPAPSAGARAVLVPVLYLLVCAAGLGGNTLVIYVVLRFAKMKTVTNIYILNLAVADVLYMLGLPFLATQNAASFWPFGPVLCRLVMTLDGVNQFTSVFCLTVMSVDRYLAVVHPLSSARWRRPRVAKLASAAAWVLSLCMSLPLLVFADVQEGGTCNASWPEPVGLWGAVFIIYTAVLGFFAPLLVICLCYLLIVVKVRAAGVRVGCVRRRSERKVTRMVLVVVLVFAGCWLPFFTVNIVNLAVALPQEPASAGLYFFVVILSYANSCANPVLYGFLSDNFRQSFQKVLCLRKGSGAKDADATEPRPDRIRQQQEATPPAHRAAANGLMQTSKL

168 GPCRs [8] = target: T8, 168 GPCRs (Homo sapiens, UniProt P35462)
T8 construct: host or cells: PathHunter cell lines
T8 sequence (P35462 whole entry): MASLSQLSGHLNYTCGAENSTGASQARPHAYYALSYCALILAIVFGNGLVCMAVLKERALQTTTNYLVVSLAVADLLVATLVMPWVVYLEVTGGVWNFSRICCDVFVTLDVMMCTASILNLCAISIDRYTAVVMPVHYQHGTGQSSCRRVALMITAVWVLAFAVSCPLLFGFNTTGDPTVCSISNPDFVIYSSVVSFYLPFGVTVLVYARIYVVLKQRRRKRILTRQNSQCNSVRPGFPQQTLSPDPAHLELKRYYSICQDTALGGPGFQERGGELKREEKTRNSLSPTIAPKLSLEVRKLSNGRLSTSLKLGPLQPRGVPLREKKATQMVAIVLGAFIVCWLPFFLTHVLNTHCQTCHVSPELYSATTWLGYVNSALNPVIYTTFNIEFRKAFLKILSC

168 GPCRs [9] = target: T9, 168 GPCRs (Homo sapiens, UniProt P41968); conditions: MC3R
T9 construct: host or cells: PathHunter cell lines
T9 sequence (P41968 whole entry): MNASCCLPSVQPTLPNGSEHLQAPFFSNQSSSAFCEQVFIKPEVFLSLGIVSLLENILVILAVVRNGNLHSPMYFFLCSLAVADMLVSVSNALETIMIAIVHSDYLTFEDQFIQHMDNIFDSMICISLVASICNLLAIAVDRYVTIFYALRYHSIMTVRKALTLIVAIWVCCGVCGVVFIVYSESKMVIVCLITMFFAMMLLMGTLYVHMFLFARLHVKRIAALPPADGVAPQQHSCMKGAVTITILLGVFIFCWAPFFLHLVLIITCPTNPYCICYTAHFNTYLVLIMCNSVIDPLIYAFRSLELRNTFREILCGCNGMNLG

168 GPCRs [10] = target: T10, 168 GPCRs (Homo sapiens, UniProt P43119); conditions: PTGIR
T10 construct: host or cells: PathHunter cell lines
T10 sequence (P43119 whole entry): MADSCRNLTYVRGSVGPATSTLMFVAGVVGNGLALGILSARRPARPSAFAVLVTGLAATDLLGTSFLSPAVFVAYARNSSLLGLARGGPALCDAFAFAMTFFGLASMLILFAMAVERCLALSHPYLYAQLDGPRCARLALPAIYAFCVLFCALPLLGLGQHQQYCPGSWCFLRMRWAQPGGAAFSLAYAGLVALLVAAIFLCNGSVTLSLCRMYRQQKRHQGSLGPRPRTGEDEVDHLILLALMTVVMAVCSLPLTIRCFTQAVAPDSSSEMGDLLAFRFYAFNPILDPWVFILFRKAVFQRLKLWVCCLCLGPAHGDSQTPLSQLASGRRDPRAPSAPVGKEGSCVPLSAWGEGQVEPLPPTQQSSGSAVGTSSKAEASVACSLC

168 GPCRs [11] = target: T11, 168 GPCRs (Homo sapiens, UniProt Q9H3N8)
T11 construct: host or cells: PathHunter cell lines
T11 sequence (Q9H3N8 whole entry): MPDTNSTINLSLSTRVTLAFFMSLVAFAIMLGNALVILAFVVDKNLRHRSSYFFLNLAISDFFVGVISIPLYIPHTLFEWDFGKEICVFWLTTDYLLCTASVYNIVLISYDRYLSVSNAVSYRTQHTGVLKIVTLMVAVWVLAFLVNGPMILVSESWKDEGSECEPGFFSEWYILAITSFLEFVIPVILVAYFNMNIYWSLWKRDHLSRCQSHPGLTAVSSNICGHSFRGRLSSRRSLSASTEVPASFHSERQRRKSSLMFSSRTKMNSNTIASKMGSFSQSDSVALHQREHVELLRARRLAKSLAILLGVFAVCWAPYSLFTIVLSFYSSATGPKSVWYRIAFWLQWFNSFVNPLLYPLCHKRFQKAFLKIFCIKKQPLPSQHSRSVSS

T1 sequence (O43193 whole entry): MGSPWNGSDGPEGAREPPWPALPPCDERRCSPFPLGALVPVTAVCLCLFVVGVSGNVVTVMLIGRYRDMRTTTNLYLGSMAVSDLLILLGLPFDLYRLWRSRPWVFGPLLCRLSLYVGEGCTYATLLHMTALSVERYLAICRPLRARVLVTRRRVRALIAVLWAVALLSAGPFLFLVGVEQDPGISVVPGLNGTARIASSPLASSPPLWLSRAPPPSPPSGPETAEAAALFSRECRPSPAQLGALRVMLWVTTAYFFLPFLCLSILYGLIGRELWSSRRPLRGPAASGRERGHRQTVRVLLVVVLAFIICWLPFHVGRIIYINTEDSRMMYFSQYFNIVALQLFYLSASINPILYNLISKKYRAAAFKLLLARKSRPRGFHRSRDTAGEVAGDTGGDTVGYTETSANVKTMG

In the case of CNC(C)Cc1ccc2c(c1)OCO2 (stereo not shown) [MDMA, 3,4-Methylenedioxy methamphetamine, reference compound], the “% Agonist Activity” value (168 GPCRs [1]; 1 uM) is reported as -0.3%, the “% Antagonist Activity” value (168 GPCRs [1]; 1 uM) is reported as 6.2% and the “% Agonist Activity” value (168 GPCRs [1]; 10 uM) is reported as -0.1%. For the same compound, the “% Antagonist Activity” value (168 GPCRs [1]; 10 uM) was 16.3%, the “% Agonist Activity” value (168 GPCRs [2]; GALR2, 1 uM) was -2.9% and the “% Antagonist Activity” value (168 GPCRs [2]; GALR2, 1 uM) was -5.1%. The “% Agonist Activity” value (168 GPCRs [2]; GALR2, 10 uM) was -3%, the “% Antagonist Activity” value (168 GPCRs [2]; GALR2, 10 uM) was -7.3% and the “% Agonist Activity” value (168 GPCRs [3]; Conc 1 uM) was 1.3%. For the same compound, the “% Antagonist Activity” value (168 GPCRs [3]; Conc 1 uM) was -3.9%, the “% Agonist Activity” value (168 GPCRs [3]; Conc 10 uM) was 0.6% and the “% Antagonist Activity” value (168 GPCRs [3]; Conc 10 uM) was 2.2%. For the same compound, the “% Agonist Activity” value (168 GPCRs [4]; 1 uM) was 8.5%, the “% Antagonist Activity” value (168 GPCRs [4]; 1 uM) was -7.3% and the “% Agonist Activity” value (168 GPCRs [4]; 10 uM) was 10.4%. For the same compound, the “% Antagonist Activity” value (168 GPCRs [4]; 10 uM) was -0.1%, the “% Agonist Activity” value (168 GPCRs [5]; 1 uM) was -0.1% and the “% Antagonist Activity” value (168 GPCRs [5]; 1 uM) was -2.2%. For the same compound, the “% Agonist Activity” value (168 GPCRs [5]; 10 uM) was 0.4%, the “% Antagonist Activity” value (168 GPCRs [5]; 10 uM) was 0.7% and the “% Agonist Activity” value (168 GPCRs [6]; Conc 1 uM) was 2.9%. For the same compound, the “% Antagonist Activity” value (168 GPCRs [6]; Conc 1 uM) was 3.7%, the “% Agonist Activity” value (168 GPCRs [6]; Conc 10 uM) was 0.1% and the “% Antagonist Activity” value (168 GPCRs [6]; Conc 10 uM) was -0.9%. For the same compound, the “% Agonist Activity” value (168 GPCRs [7]; Conc 1 uM) was -2.5%, the “% Antagonist Activity” value (168 GPCRs [7]; Conc 1 uM) was 1.6% and the “% Agonist Activity” value (168 GPCRs [7]; Conc 10 uM) was -3.2%. The “% Antagonist Activity” value (168 GPCRs [7]; Conc 10 uM) was -2%, the “% Agonist Activity” value (168 GPCRs [8]; DRD3, 1 uM) was 7.1% and the “% Antagonist Activity” value (168 GPCRs [8]; DRD3, 1 uM) was 9.6%. The “% Agonist Activity” value (168 GPCRs [8]; DRD3, 10 uM) was 7.3%, the “% Antagonist Activity” value (168 GPCRs [8]; DRD3, 10 uM) was 10.6% and the “% Agonist Activity” value (168 GPCRs [9]; 1 uM) was 0.7%. The “% Antagonist Activity” value (168 GPCRs [9]; 1 uM) was 5.9%, the “% Agonist Activity” value (168 GPCRs [9]; 10 uM) was 1.3% and the “% Antagonist Activity” value (168 GPCRs [9]; 10 uM) was 1.9%. The “% Agonist Activity” value (168 GPCRs [10]; Conc 1 uM) was 2.3%, the “% Antagonist Activity” value (168 GPCRs [10]; Conc 1 uM) was 18.8% and the “% Agonist Activity” value (168 GPCRs [10]; Conc 10 uM) was 8.6%. The “% Antagonist Activity” value (168 GPCRs [10]; Conc 10 uM) was 22.7%, the “% Agonist Activity” value (168 GPCRs [11]; HRH4, 1 uM) was 1.9% and the “% Antagonist Activity” value (168 GPCRs [11]; HRH4, 1 uM) was 14.5%. The “% Agonist Activity” value (168 GPCRs [11]; HRH4, 10 uM) was 3.1% and the “% Antagonist Activity” value (168 GPCRs [11]; HRH4, 10 uM) was 14.5%.

For CNC(C)C(=O)c1ccc2c(c1)OCO2 (stereo not shown) [methylone], the “% Agonist Activity” value (168 GPCRs [1]; 1 uM) was -1.5%, the “% Antagonist Activity” value (168 GPCRs [1]; 1 uM) was 15.6% and the “% Agonist Activity” value (168 GPCRs [1]; 10 uM) was -1%. For the same compound, the “% Antagonist Activity” value (168 GPCRs [1]; 10 uM) was 12.3%, the “% Agonist Activity” value (168 GPCRs [2]; GALR2, 1 uM) was 3.4% and the “% Antagonist Activity” value (168 GPCRs [2]; GALR2, 1 uM) was 7%. The “% Agonist Activity” value (168 GPCRs [2]; GALR2, 10 uM) was 1.9%, the “% Antagonist Activity” value (168 GPCRs [2]; GALR2, 10 uM) was 1.5% and the “% Agonist Activity” value (168 GPCRs [3]; Conc 1 uM) was -2.2%. For the same compound, the “% Antagonist Activity” value (168 GPCRs [3]; Conc 1 uM) was 0.2%, the “% Agonist Activity” value (168 GPCRs [3]; Conc 10 uM) was -4.9% and the “% Antagonist Activity” value (168 GPCRs [3]; Conc 10 uM) was 5.4%. For the same compound, the “% Agonist Activity” value (168 GPCRs [4]; 1 uM) was 3.3%, the “% Antagonist Activity” value (168 GPCRs [4]; 1 uM) was -9.5% and the “% Agonist Activity” value (168 GPCRs [4]; 10 uM) was 6.7%. For the same compound, the “% Antagonist Activity” value (168 GPCRs [4]; 10 uM) was -6.2%, the “% Agonist Activity” value (168 GPCRs [5]; 1 uM) was 0.1% and the “% Antagonist Activity” value (168 GPCRs [5]; 1 uM) was -4.3%. For the same compound, the “% Agonist Activity” value (168 GPCRs [5]; 10 uM) was -0.3%, the “% Antagonist Activity” value (168 GPCRs [5]; 10 uM) was -3.3% and the “% Agonist Activity” value (168 GPCRs [6]; Conc 1 uM) was 0.7%. The “% Antagonist Activity” value (168 GPCRs [6]; Conc 1 uM) was 13.2%, the “% Agonist Activity” value (168 GPCRs [6]; Conc 10 uM) was 0.3% and the “% Antagonist Activity” value (168 GPCRs [6]; Conc 10 uM) was 8%. For the same compound, the “% Agonist Activity” value (168 GPCRs [7]; Conc 1 uM) was -2.4%, the “% Antagonist Activity” value (168 GPCRs [7]; Conc 1 uM) was 14.7% and the “% Agonist Activity” value (168 GPCRs [7]; Conc 10 uM) was -1.3%. For the same compound, the “% Antagonist Activity” value (168 GPCRs [7]; Conc 10 uM) was 5.7%, the “% Agonist Activity” value (168 GPCRs [8]; DRD3, 1 uM) was 2.2% and the “% Antagonist Activity” value (168 GPCRs [8]; DRD3, 1 uM) was -12%. For the same compound, the “% Agonist Activity” value (168 GPCRs [8]; DRD3, 10 uM) was 2.3%, the “% Antagonist Activity” value (168 GPCRs [8]; DRD3, 10 uM) was -17.8% and the “% Agonist Activity” value (168 GPCRs [9]; 1 uM) was -3.2%. For the same compound, the “% Antagonist Activity” value (168 GPCRs [9]; 1 uM) was -5.7%, the “% Agonist Activity” value (168 GPCRs [9]; 10 uM) was -1.8% and the “% Antagonist Activity” value (168 GPCRs [9]; 10 uM) was 0.3%. The “% Agonist Activity” value (168 GPCRs [10]; Conc 1 uM) was -4.4%, the “% Antagonist Activity” value (168 GPCRs [10]; Conc 1 uM) was 12.4% and the “% Agonist Activity” value (168 GPCRs [10]; Conc 10 uM) was -2.3%. For the same compound, the “% Antagonist Activity” value (168 GPCRs [10]; Conc 10 uM) was -21.5%, the “% Agonist Activity” value (168 GPCRs [11]; HRH4, 1 uM) was 8.6% and the “% Antagonist Activity” value (168 GPCRs [11]; HRH4, 1 uM) was -11.6%. For the same compound, the “% Agonist Activity” value (168 GPCRs [11]; HRH4, 10 uM) was 9% and the “% Antagonist Activity” value (168 GPCRs [11]; HRH4, 10 uM) was -14%.
